In this assay the target is T1, interactions between Talin 1 (TLN1) and integrin subunit beta (ITGB) (Homo sapiens, UniProt Q9Y490).
T1 construct: LgBit or SmBit (N-terminal of the HaloTag); made in house
Kind of assay: Flip-flop detection mechanism on DNA origami (LgBit/SmBit luminescence), inhibitor screening. The format is biochemical. The following applies: inhibition of binding between TLN1 and ITBG; for IC50: read-out: Inhibitory activity. An excerpt:
Two types of systems, i.e., flip-flop detection mechanism and switch detection mechanism, were constructed by using HaloTag, LgBit, SmBit, TLN1, and ITGB. Each of TLN1 (Uniprot ID: Q9Y490) and ITGB1 (Uniprot ID: P05556) was cloned from the registered genetic information. HaloTAg has three chemically modifiable locations at a ligand recognition site, C-terminus, and N-terminus. In this Example, a single-stranded DNA for attaching to DNA origami was connected to a ligand recognition site of HaloTag, a subunit of an interaction complex was connected to the C-terminus, and LgBit or SmBit was connected to the N-terminus.
The outline of the system is disclosed in Figure 23. When TLN1 and ITBG are in a bound state in this system, LgBit and SmBit are at spatially separated positions from each other, with a HaloTag interposed therebetween. In this regard, if an inhibitor is added, complex formation of TLN1 and ITBG is inhibited. As a result, a LgBit-SmBit complex can be formed, and a luminescence reaction progresses.
As a candidate drug for inhibiting the binding between TLN1 and ITBG, peptide inhibitors consisting of 13 amino acids prepared by modifying amino acids in an intracellular region of ITGB3 have been designed (Shen B. et al., A directional switch of integrin signaling and a new antithrombotic strategy. Nature 503, 131-135 (2013)). IC50 values for the peptides shown in the following table were calculated by using the flip-flop detection mechanism described in Example 11 for optimizing the sequence. In this manner, the effect of a large number of compounds on the interaction with a target protein can be readily analyzed in the system of the present disclosed.

Non-standard residues stand in square brackets, D forms with d. Residues, ends and D or L forms follow the SMILES beside them. pT = C[C@@H](OP(=O)(O)O)[C@H](N)C(=O)O; pS = N[C@@H](COP(=O)(O)O)C(=O)O

Regarding `CSCC[C@H](NC(=O)[C@H](CCCCN)NC(=O)[C@H](CCC(=O)O)NC(=O)[C@H](CCCCN)NC(=O)[C@H](CCC(=O)O)NC(=O)[C@H](Cc1ccccc1)NC(=O)[C@@H](N)CCCCN)C(=O)N[C@@H](CC(N)=O)C(=O)N[C@@H](CS)C(=O)N[C@@H](CCCCN)C(=O)N[C@@H](Cc1c[nH]c2ccccc12)C(=O)N[C@@H](CC(=O)O)C(=O)N[C@H](C(=O)O)[C@@H](C)O` [FIYM8] (H-KFEKEKMNCKWDT-OH), the Inhibitory activity result is recorded as “no inhibition”.

On to `CSCC[C@H](NC(=O)[C@H](CCCCN)NC(=O)[C@H](CCC(=O)O)NC(=O)[C@H](CCCCN)NC(=O)[C@H](CCC(=O)O)NC(=O)[C@H](Cc1ccccc1)NC(=O)[C@@H](N)CCCCN)C(=O)N[C@@H](CC(N)=O)C(=O)N[C@@H](C)C(=O)N[C@@H](CCCCN)C(=O)N[C@@H](Cc1c[nH]c2ccccc12)C(=O)N[C@@H](CCSC)C(=O)N[C@H](C(=O)O)[C@@H](C)O` [FIYM9] (H-KFEKEKMNAKWMT-OH), for which the Inhibitory activity result is “no inhibition”.

`CSCC[C@H](NC(=O)[C@H](CCCCN)NC(=O)[C@H](CCC(=O)O)NC(=O)[C@H](CCCCN)NC(=O)[C@H](CCC(=O)O)NC(=O)[C@H](Cc1ccccc1)NC(=O)[C@@H](N)CCCCN)C(=O)N[C@@H](CC(N)=O)C(=O)N[C@@H](CS)C(=O)N[C@@H](CCCCN)C(=O)N[C@@H](Cc1c[nH]c2ccccc12)C(=O)N[C@@H](CCSC)C(=O)N[C@H](C(=O)O)[C@@H](C)O` [FIYM10] (H-KFEKEKMNCKWMT-OH): the IC50 was 5.7 µM.

Consider `CSCC[C@H](NC(=O)[C@H](Cc1c[nH]c2ccccc12)NC(=O)[C@H](CCCCN)NC(=O)[C@H](CS)NC(=O)[C@H](CC(N)=O)NC(=O)[C@H](CCSC)NC(=O)[C@H](CCCCN)NC(=O)[C@H](CCC(=O)O)NC(=O)[C@H](CCCCN)NC(=O)[C@H](CCC(=O)O)NC(=O)[C@H](Cc1ccccc1)NC(=O)[C@@H](N)CCCCN)C(=O)N[C@@H](CCCCN)C(=O)O` [FIYM11] (H-KFEKEKMNCKWMK-OH), for which the Inhibitory activity result is “no inhibition”.

Regarding `CSCC[C@H](NC(=O)[C@H](Cc1c[nH]c2ccccc12)NC(=O)[C@H](CCCCN)NC(=O)[C@H](CS)NC(=O)[C@H](CC(N)=O)NC(=O)[C@H](CCSC)NC(=O)[C@H](CCCCN)NC(=O)[C@H](CCC(=O)O)NC(=O)[C@H](CCCCN)NC(=O)[C@H](CCC(=O)O)NC(=O)[C@H](Cc1ccccc1)NC(=O)[C@@H](N)CCCCN)C(=O)N[C@@H](CCCNC(=N)N)C(=O)O` [FIYM12] (H-KFEKEKMNCKWMR-OH), the Inhibitory activity result is on record as “no inhibition”.

As for `CSCC[C@H](NC(=O)[C@H](CCCCN)NC(=O)[C@H](CCC(=O)O)NC(=O)[C@H](CCCCN)NC(=O)[C@H](CCC(=O)O)NC(=O)[C@H](Cc1ccccc1)NC(=O)[C@@H](N)CCCCN)C(=O)N[C@@H](CC(N)=O)C(=O)N[C@@H](CS)C(=O)N[C@@H](CCCCN)C(=O)N[C@@H](Cc1c[nH]c2ccccc12)C(=O)N[C@@H](CCSC)C(=O)N[C@H](C(=O)O)[C@@H](C)OP(=O)(O)O` [FIYM13] (H-KFEKEKMNCKWM[pT]-OH), the Inhibitory activity result is listed as “no inhibition”.

`CSCC[C@H](NC(=O)[C@H](Cc1c[nH]c2ccccc12)NC(=O)[C@H](CCCCN)NC(=O)[C@H](CS)NC(=O)[C@H](CC(N)=O)NC(=O)[C@H](CCSC)NC(=O)[C@H](CCCCN)NC(=O)[C@H](CCC(=O)O)NC(=O)[C@H](CCCCN)NC(=O)[C@H](CCC(=O)O)NC(=O)[C@H](Cc1ccccc1)NC(=O)[C@@H](N)CCCCN)C(=O)N[C@@H](COP(=O)(O)O)C(=O)O` [FIYM14] (H-KFEKEKMNCKWM[pS]-OH): the Inhibitory activity entry is “no inhibition”.

`CSCC[C@H](NC(=O)[C@H](CCCCN)NC(=O)[C@H](CCC(=O)O)NC(=O)[C@H](CCCNC(=N)N)NC(=O)[C@H](CCC(=O)O)NC(=O)[C@H](Cc1ccccc1)NC(=O)[C@@H](N)CCCNC(=N)N)C(=O)N[C@@H](CC(N)=O)C(=O)N[C@@H](CS)C(=O)N[C@@H](CCCNC(=N)N)C(=O)N[C@@H](Cc1c[nH]c2ccccc12)C(=O)N[C@@H](CCSC)C(=O)N[C@H](C(=O)O)[C@@H](C)O` [FIYM16] (H-RFEREKMNCRWMT-OH): the Inhibitory activity entry was “no inhibition”.

Regarding `CSCC[C@H](NC(=O)[C@H](CCCCN)NC(=O)[C@H](CCC(=O)O)NC(=O)[C@H](CCCCN)NC(=O)[C@H](CCC(=O)O)NC(=O)[C@H](Cc1ccccc1)NC(=O)[C@H](CCCCN)NC(=O)[C@@H]1CCCN1C(C)=O)C(=O)N[C@@H](CC(N)=O)C(=O)N[C@@H](CS)C(=O)N[C@@H](CCCCN)C(=O)N[C@@H](Cc1c[nH]c2ccccc12)C(=O)N[C@@H](CCSC)C(=O)N[C@H](C(=O)O)[C@@H](C)O` [FIYM17] (Ac-PKFEKEKMNCKWMT-OH), the IC50 worked out at 144 µM.

As to `CSCC[C@H](NC(=O)[C@H](CCCNC(=N)N)NC(=O)[C@H](CCC(=O)O)NC(=O)[C@H](Cc1ccccc1)NC(=O)[C@@H](N)CCCCN)C(=O)N[C@@H](CC(N)=O)C(=O)N[C@@H](CS)C(=O)N[C@@H](CCCCN)C(=O)N[C@@H](Cc1c[nH]c2ccccc12)C(=O)N[C@@H](CCSC)C(=O)N[C@H](C(=O)O)[C@@H](C)O` [FIYM20] (H-KFERMNCKWMT-OH), the Inhibitory activity result is on record as “no inhibition”.

`CSCC[C@H](NC(=O)[C@H](Cc1c[nH]c2ccccc12)NC(=O)[C@H](CCCCN)NC(=O)[C@H](CS)NC(=O)[C@H](CC(N)=O)NC(=O)[C@H](CCSC)NC(=O)[C@H](CCCCN)NC(=O)[C@H](CCC(=O)O)NC(=O)[C@H](CCCCN)NC(=O)[C@H](CCC(=O)O)NC(=O)[C@H](Cc1ccccc1)NC(=O)[C@@H](N)CCCCN)C(=O)O` [FIYM22] (H-KFEKEKMNCKWM-OH): the IC50 was found to be 472 µM.

Consider `CSCC[C@H](NC(=O)[C@H](CCCCN)NC(=O)[C@H](CCC(=O)O)NC(=O)[C@H](CCCCN)NC(=O)[C@H](CCC(=O)O)NC(=O)[C@@H](N)Cc1ccccc1)C(=O)N[C@@H](CC(N)=O)C(=O)N[C@@H](CS)C(=O)N[C@@H](CCCCN)C(=O)N[C@@H](Cc1c[nH]c2ccccc12)C(=O)N[C@@H](CCSC)C(=O)N[C@H](C(=O)O)[C@@H](C)O` [FIYM23] (H-FEKEKMNCKWMT-OH), for which the IC50 was determined as 444 µM.

For `CSCC[C@H](NC(=O)[C@H](Cc1c[nH]c2ccccc12)NC(=O)[C@H](CCCCN)NC(=O)[C@H](CS)NC(=O)[C@H](CC(N)=O)NC(=O)[C@H](CCSC)NC(=O)[C@H](CCCCN)NC(=O)[C@H](CCC(=O)O)NC(=O)[C@H](CCCCN)NC(=O)[C@H](CCC(=O)O)NC(=O)[C@@H](N)Cc1ccccc1)C(=O)O` [FIYM24] (H-FEKEKMNCKWM-OH), the Inhibitory activity entry is reported as “no inhibition”.

For the compound `CSCC[C@H](NC(=O)[C@H](CCCNC(=N)N)NC(=O)[C@H](CCC(=O)O)NC(=O)[C@@H](N)Cc1ccccc1)C(=O)N[C@@H](CC(N)=O)C(=O)N[C@@H](CS)C(=O)N[C@@H](CCCCN)C(=O)N[C@@H](Cc1c[nH]c2ccccc12)C(=O)N[C@@H](CCSC)C(=O)N[C@H](C(=O)O)[C@@H](C)O` [FIYM25] (H-FERMNCKWMT-OH), the Inhibitory activity result was “no inhibition”.

Regarding `CSCC[C@H](NC(=O)[C@H](CCCCN)NC(=O)[C@H](CCC(=O)O)NC(=O)[C@H](CCCCN)NC(=O)[C@H](CCC(=O)O)NC(=O)[C@H](Cc1ccccc1)NC(=O)[C@@H](N)CCCNC(=N)N)C(=O)N[C@@H](CC(N)=O)C(=O)N[C@@H](CS)C(=O)N[C@@H](CCCCN)C(=O)N[C@@H](Cc1c[nH]c2ccccc12)C(=O)N[C@@H](CCSC)C(=O)N[C@H](C(=O)O)[C@@H](C)O` [FIYM26] (H-RFEKEKMNCKWMT-OH), the IC50 was 76.9 µM.

The record behind these values is patent EP4793641A1, “NOVEL METHOD FOR ANALYZING BIOMOLECULAR INTERACTIONS” (Kyoto University, priority 2023, dated 2025).
